The values that follow come from US9000025B2, “Autotaxin inhibitors and uses thereof” (Amira Pharmaceuticals, Inc., priority 2010, dated 2015).

A value given as a limit tells only on which side of the number the result lay.

This experiment has as its target T1, autotaxin (ATX) (Homo sapiens, UniProt Q13822).
T1 construct: conditioned medium from the human melanoma cell line, MDA-MB-4355, which endogenously expresses autotaxin; host or cells: MDA-MB-435S human melanoma cells; serum-free conditioned medium, concentrated 20-fold
Briefly: Native Autotaxin Choline Release Assay. The experiment is classed as biochemical. The settings on record: autotaxin in conditioned medium from human melanoma cell line; choline released from LPC; read-out: MDA-MB-435S Assay IC50. In outline:
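Native ATX from conditioned serum-free, phenol-red-free DMEM of confluent cells cultured 48 h; LPC as substrate. Released choline detected with choline oxidase/peroxidase/4-aminoantipyrine colour mix in 50 mM Tris pH 8, 10 min at 37 °C, absorbance 555 nm; choline quantified against standard curve, equated to LPA formed.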

As to `COC(=O)c1cccc(Oc2c(C)n(Cc3ccccc3)c3cc(Cl)ccc23)c1` [Compound 2-3, 3-(1-Benzyl-6-chloro-2-methyl-1H-indol-3-yloxy)-benzoic acid methyl ester], the IC50 was more than 1000 nM.
The figure for `Cc1c(Sc2cccc(CC(=O)O)c2)c2cc(Cl)ccc2n1C` [Compound 3-12, [3-(5-Chloro-1,2-dimethyl-1H-indol-3-ylsulfanyl)-phenyl]-acetic acid] is more than 1000 nM; for `Cc1cncc(-n2c(C)c(Sc3cccc(C(=O)O)c3)c3ccc(Cl)c(F)c32)c1` [Compound 3-22, 3-[6-Chloro-7-fluoro-2-methyl-1-(5-methyl-pyridin-3-yl)-1H-indol-3-ylsulfanyl]-benzoic acid] it is less than 300 nM.
The figure for `Cc1[nH]c2cccc(Cl)c2c1Sc1cccc(B(O)O)c1` [Compound 3-9, 3-(4-Chloro-2-methyl-1H-indol-3-ylsulfanyl)-phenylboronic acid] is more than 1000 nM; for `Cc1c(Sc2cccc(C(=O)O)c2)c2ccc(Cl)cc2n1-c1cccnc1` [Compound 1-30, 3-(6-Chloro-2-methyl-1-pyridin-3-yl-1H-indol-3-ylsulfanyl)-benzoic acid] it is less than 300 nM.
Take `Cc1[nH]c2cccc(F)c2c1Sc1cccc(CC(=O)O)c1` [Compound 3-5, [3-(4-Fluoro-2-methyl-1H-indol-3-ylsulfanyl)-phenyl]-acetic acid]: the IC50 was more than 1000 nM.
In the case of `Cc1c(Sc2cccc(C(=O)O)c2)c2ccc(Cl)cc2n1-c1cnn(-c2ccccc2)c1` [Compound 1-58, 3-[6-Chloro-2-methyl-1-(1-phenyl-1H-pyrazol-4-yl)-1H-indol-3-ylsulfanyl]-benzoic acid], the IC50 was less than 300 nM.
The figure for `Cc1c(Sc2cccc(CC(=O)O)c2)c2ccccc2n1Cc1ccccc1` [Compound 1-9, [3-(1-Benzyl-2-methyl-1H-indol-3-ylsulfanyl)-phenyl]-acetic acid] is more than 1000 nM.
The figure for `COc1ccc(-n2c(C)c(Sc3cccc(C(=O)O)c3)c3ccc(Cl)cc32)cn1` [Compound 1-33, 3-[6-Chloro-1-(6-methoxy-pyridin-3-yl)-2-methyl-1H-indol-3-ylsulfanyl]-benzoic acid] is less than 300 nM.
Regarding `Cc1c(Sc2cccc(C(=O)O)c2)c2ccc(Cl)cc2n1-c1cncnc1` [Compound 1-38, 3-(6-Chloro-2-methyl-1-pyrimidin-5-yl-1H-indol-3-ylsulfanyl)-benzoic acid], the IC50 was less than 300 nM.
Regarding `CCn1cc(-n2c(C)c(Sc3cc(C)cc(C(=O)O)c3)c3ccc(Cl)cc32)cn1` [Compound 1-52, 3-[6-Chloro-1-(1-ethyl-1H-pyrazol-4-yl)-2-methyl-1H-indol-3-ylsulfanyl]-5-methyl-benzoic acid], the IC50 is more than 1000 nM.
With `Cc1c(Sc2cccc(C(=O)O)c2)c2ccc(Cl)cc2n1Cc1ccc(F)cc1` [Compound 1-18, 3-[6-Chloro-1-(4-fluoro-benzyl)-2-methyl-1H-indol-3-ylsulfanyl]-benzoic acid], the IC50 is more than 1000 nM.
With `CCn1cc(-n2c(C)c(Sc3cccc(C(=O)O)c3)c3ccc(Cl)cc32)cn1` [Compound 1-43, 3-[6-Chloro-1-(1-ethyl-1H-pyrazol-4-yl)-2-methyl-1H-indol-3-ylsulfanyl]-benzoic acid], the IC50 was less than 300 nM.
With `Cc1c(Sc2cccc(C(C)C(=O)O)c2)c2ccc(Cl)cc2n1-c1cccnc1` (stereo not shown) [Compound 3-20, 2-[3-(6-Chloro-2-methyl-1-pyridin-3-yl-1H-indol-3-ylsulfanyl)-phenyl]-propionic acid], the IC50 was less than 300 nM.
Then `Cc1c(Sc2cccc(/C=C/C(=O)O)c2)c2ccc(Cl)cc2n1Cc1ccccc1` [Compound 2-7, (E)-3-[3-(1-Benzyl-6-chloro-2-methyl-1H-indol-3-ylsulfanyl)-phenyl]-acrylic acid], with more than 1000 nM; and `CCCn1cc(-n2c(C)c(Sc3cccc(CC(=O)NS(C)(=O)=O)c3)c3ccc(Cl)cc32)cn1` [Compound 3-53, N-(2-{3-[6-Chloro-2-methyl-1-(1-propyl-1H-pyrazol-4-yl)-1H-indol-3-ylsulfanyl]-phenyl}-acetyl)-methanesulfonamide], with less than 300 nM; and `CCn1cc(-n2c(C)c(Sc3cccc(C(=O)NS(=O)(=O)c4ccccc4)c3)c3ccc(Cl)c(F)c32)cn1` [Compound 3-42, N-{3-[6-Chloro-1-(1-ethyl-1H-pyrazol-4-yl)-7-fluoro-2-methyl-1H-indol-3-ylsulfanyl]-benzoyl}-benzenesulfonamide], with less than 300 nM.
Regarding `Cc1c(Sc2cc(C(=O)O)cc(C(F)(F)F)c2)c2ccc(Cl)cc2n1-c1cnn(C)c1` [Compound 1-53, 3-[6-Chloro-2-methyl-1-(1-methyl-1H-pyrazol-4-yl)-1H-indol-3-ylsulfanyl]-5-trifluoromethyl-benzoic acid], the IC50 was more than 1000 nM.
In the case of `Cc1c(Sc2cccc(C(=O)NCCN(C)C)c2)c2ccc(Br)cc2n1Cc1ccccc1` [Compound 2-11, 3-(1-Benzyl-6-bromo-2-methyl-1H-indol-3-ylsulfanyl)-N-(2-dimethylamino-ethyl)-benzamide], the IC50 is more than 1000 nM.
Then `CCn1cc(-n2c(C)c(Sc3cccc(C(=O)O)c3)c3ccc(S(C)(=O)=O)cc32)cn1` [Compound 1-75, 3-[1-(1-Ethyl-1H-pyrazol-4-yl)-6-methanesulfonyl-2-methyl-1H-indol-3-ylsulfanyl]-benzoic acid], with more than 1000 nM; and `CCn1cc(-n2c(C)c(Sc3cc(F)cc(C(=O)O)c3)c3ccc(Cl)cc32)cn1` [Compound 1-129, 3-[6-Chloro-1-(1-ethyl-1H-pyrazol-4-yl)-2-methyl-1H-indol-3-ylsulfanyl]-5-fluoro-benzoic acid], with less than 300 nM.
With `CCn1cc(-n2c(C)c(Sc3cccc(C4(C(=O)O)CC4)c3)c3ccc(Cl)cc32)cn1` [Compound 1-74, 1-{3-[6-Chloro-1-(1-ethyl-1H-pyrazol-4-yl)-2-methyl-1H-indol-3-ylsulfanyl]-phenyl}-cyclopropanecarboxylic acid], the IC50 was less than 300 nM.
Then `Cc1c(Sc2cccc(C(=O)O)c2)c2ccc(Cl)cc2n1-c1cnn(CC(F)(F)F)c1` [Compound 1-55, 3-{6-Chloro-2-methyl-1-[1-(2,2,2-trifluoro-ethyl)-1H-pyrazol-4-yl]-1H-indol-3-ylsulfanyl}-benzoic acid], with less than 300 nM; and `CCc1cncc(-n2c(C)c(Sc3cccc(C(=O)O)c3F)c3ccc(Cl)cc32)c1` [Compound 1-73, 3-[6-Chloro-1-(5-ethyl-pyridin-3-yl)-2-methyl-1H-indol-3-ylsulfanyl]-2-fluoro-benzoic acid], with less than 300 nM.
Turning to `Cc1c(Sc2cccc(C(=O)O)c2)c2ccc(Cl)cc2n1Cc1ccccc1` [Compound 1-15, 3-(1-Benzyl-6-chloro-2-methyl-1H-indol-3-ylsulfanyl)-benzoic acid], the IC50 is 300 to 1000 nM.
The figure for `Cc1[nH]c2c(Cl)cccc2c1Sc1cccc(CC(=O)O)c1` [Compound 3-4, [3-(7-Chloro-2-methyl-1H-indol-3-ylsulfanyl)-phenyl]-acetic acid] is more than 1000 nM; for `Cc1[nH]c2cc(Cl)ccc2c1Sc1ccccc1CC(=O)O` [Compound 3-1, [2-(6-Chloro-2-methyl-1H-indol-3-ylsulfanyl)-phenyl]-acetic acid] it is more than 1000 nM.
With `Cc1c(Sc2cccc(B(O)O)c2)c2ccc(Cl)cc2n1-c1cccnc1` [Compound 2-12, 3-(6-Chloro-2-methyl-1-pyridin-3-yl-1H-indol-3-ylsulfanyl)-phenylboronic acid], the IC50 was more than 1000 nM.
